Reference: patent US4943566A, “Novel 17-aryl-steroids” (Roussel Uclafi, priority 1987, dated 1990)

System: mammary Tumoral cells MCF-7
Assay: Anti-proliferative activity against the increase of mammary tumoral cells MCF-7 (ADN by DABA fluorimetry)
Format: cell-based
Conditions: Homo sapiens, MCF7, 144 h; MCF-7 cells, SVF medium, 6 days, ADN content; read-out: CI50 in nM (concentration which inhibits by 50% the increase in the MCF 7 cells)
Procedure: The cell culture line MCF-7 was maintained in culture in SVF (1) medium at 37° C. in a humid atmosphere containing 5% CO2. The cells at subconfluence were collected by trypsination (0.05% trypsine, 0.02% EDTA) then rinsed by gentle centrifiguation. A sample of the cells in suspension was counted by the Malassez cell. To study the increase, the cells resuspended in SVF medium were innoculated at a rate of 30,000 cells per well in a multiwell plate (24 wells per 2.5 cm^2) 24 hours after the innoculation (Day 0), the test compound was added to the medium in an ethanolic solution (final ethanol concentration is 0.1%) a concentration of 10^-6 M. The control wells received the same concentration of ethanol. The mediums were totally renewed at 48 hours. At the end of the experiment (Day 6), the medium was aspirated and the cells were immediately fixed by 150 μl of methanol after a dose of ADN. The anti-proliferative activity of the products was determined by the capacity to inhibit ADN increase.
ADN is dosed by a fluorimetric method using DABA (3,5-diamino benzoic acid). 150 μl of DABA was added to each well and the plates were incubated for 45 minutes at 56° C. and then 1.5 ml of 1N hydrochloric acid was added. The fluoresence was measured with a fluorimeter (excitement length 400 nM-length of emission wave 500 nM). The amount of ADN per well was evaluated with respect to a standard scale obtained by treating under the same conditions an ADN standard of the calf thymus. The concentration in nM which inhibit by 50% the increase in the MCF 7 cells or CI50 was determined in the same manner with the results of the following Table.
The medium for culture of calf fetal serum (SVF) was prepared as follows: MEM medium (minimal essential medium) to which was added non-essential amino acids (GIBCO), peni-strepto (penicillin 100 U/ml, streptomycine 0.1 mg/ml), 0.1% fungizone, 50 ng/ml of insulin and a 10% final concentration of calf fetal serum free of endrogenic steroids.

| IC50 [nM] | SMILES |
| --- | --- |
| 500 | CN(C)c1ccc([C@H]2C[C@@]3(C)[C@@H](CC[C@@]3(O)c3ccc(N(C)C)cc3)[C@@H]3CCC4=CC(=O)CCC4=C32)cc1 [Example 2, 11β,17α-bis-(4-dimethylamino-phenyl)-Δ^4,9-estradiene-17β-ol-3-one] |
| 400 | COc1ccc([C@]2(O)CC[C@H]3[C@@H]4CCC5=CC(=O)CCC5=C4[C@@H](c4ccc(N(C)C)cc4)C[C@@]32C)cc1 [Example 4, 11β-(4-dimethylamino-phenyl)-17α-(4-methoxy-phenyl)-Δ^4,9-estradiene-17β-ol-3-one] |
